Assay results as given in patent publication US20260209223A1, “FGFR3 INHIBITOR COMPOUNDS” (TYRA BIOSCIENCES, INC., priority 2022, published 2026).

What was measured:
[1] = biological target: T1, Ba/F3 BCR-FGFR1 (Homo sapiens, UniProt P11362); test: Ba/F3 cell viability assay (CellTiter-Glo 2.0); format: cell-based; conditions: Ba/F3 cell data, BCR-FGFR1 fusion, 48 hours
T1 construct: BCR (fusion partner); host or cells: Ba/F3; the other entry of the earlier key: BCR (P11274, Breakpoint cluster region protein)
T1 sequence (P11362 478-767 limits assumed): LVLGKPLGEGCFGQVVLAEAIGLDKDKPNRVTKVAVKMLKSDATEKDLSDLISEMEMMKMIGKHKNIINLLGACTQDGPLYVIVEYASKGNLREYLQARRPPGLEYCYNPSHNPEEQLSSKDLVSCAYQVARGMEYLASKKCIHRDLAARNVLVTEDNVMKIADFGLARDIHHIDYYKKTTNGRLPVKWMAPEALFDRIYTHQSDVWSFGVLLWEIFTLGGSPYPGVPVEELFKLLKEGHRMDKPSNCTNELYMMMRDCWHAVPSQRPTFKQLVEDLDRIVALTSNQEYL

[2] = test system: KatoIIII; test: Cancer cell line cell viability assay (CellTiter-Glo 2.0); format: cell-based; conditions: 72 hours
[3] = biological target: T2, Ba/F3 BCR-FGFR2 (Homo sapiens, UniProt P21802); test: Ba/F3 cell viability assay (CellTiter-Glo 2.0); format: cell-based; conditions: Ba/F3 cell data, BCR-FGFR2 fusion, 48 hours
T2 construct: BCR (fusion partner); host or cells: Ba/F3; the other entry of the earlier key: BCR (P11274, Breakpoint cluster region protein)
T2 sequence (P21802 481-770 limits assumed): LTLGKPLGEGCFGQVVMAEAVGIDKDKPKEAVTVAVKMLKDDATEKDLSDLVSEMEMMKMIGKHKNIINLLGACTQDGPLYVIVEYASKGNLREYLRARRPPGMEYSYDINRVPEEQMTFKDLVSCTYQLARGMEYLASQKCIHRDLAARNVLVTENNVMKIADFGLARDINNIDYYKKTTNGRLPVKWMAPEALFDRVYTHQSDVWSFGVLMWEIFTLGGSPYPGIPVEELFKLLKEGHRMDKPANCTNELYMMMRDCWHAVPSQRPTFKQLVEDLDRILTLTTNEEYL

[4] = biological target: T3, Ba/F3 ETV5-FGFR4 (Homo sapiens, UniProt P22455); test: Ba/F3 cell viability assay (CellTiter-Glo 2.0); format: cell-based; conditions: Ba/F3 cell data, ETV5-FGFR4 fusion, 48 hours
T3 construct: host or cells: Ba/F3; the other entry of the earlier key: ETV5 (P41161, ETS translocation variant 5)
T3 sequence (P22455 467-755 limits assumed): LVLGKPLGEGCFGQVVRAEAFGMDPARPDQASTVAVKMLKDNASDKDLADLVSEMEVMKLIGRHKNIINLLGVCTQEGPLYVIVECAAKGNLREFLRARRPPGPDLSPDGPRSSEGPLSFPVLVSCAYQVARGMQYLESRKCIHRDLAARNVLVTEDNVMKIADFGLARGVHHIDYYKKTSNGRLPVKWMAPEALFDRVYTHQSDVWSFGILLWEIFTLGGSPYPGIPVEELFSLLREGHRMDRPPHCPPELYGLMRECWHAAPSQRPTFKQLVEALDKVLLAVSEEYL
Description: Experimental Purpose: Recombinant kinase fusions are transduced into parental Ba/F3, which becomes dependent upon this constitutive kinase activity for IL3-independent survival. Inhibition of kinase activity leads to cell death, which is monitored using CellTiter-Glo® 2.0 (Promega) which measures intracellular ATP concentration that in turn serves as a marker for viability. BCR-FGFR1 Ba/F3, BCR-FGFR2 and FGFR3-BAIAP2L1 Ba/F3 were obtained from Advanced Cellular Dynamics (Seattle, WA). ETV6-FGFR4 was obtained from Kyinno (Waltham, MA).
Cell Viability Assay Procedure: Cell Titer-Glo® 2.0 Luminescent cell viability assay reagent was purchased from Promega (Madison, WI). Ba/F3 cell lines were cultured in RPMI1640 media supplemented with 10% fetal bovine serum. Cultures were maintained at 37° C. in a humidified atmosphere of 5% CO2 and 95% air.
Cells were plated in 96-well clear bottom/white plates (Corning #3903) at 10,000 cells/well in 100 μl of media, incubated overnight. The next day, test compound DMSO stock solutions were made at 10 mM and 2 μM final concentration. Compounds were then added to cells in a 9-dose, 10-fold dilution series starting at 30 μM with an HP 300e Digital Dispenser (each dose was applied in triplicate). DMSO was backfilled to each well up to 301 nL total volume of test compound+DMSO, and a total of 301 nL DMSO was added to a control/no test compound well in triplicate. The cells in cell culture plates were incubated with the compounds at 37° C. and 5% CO2 for 48 hours. Then 50 μl of Cell Titer Glo 2.0 reagent was added to each well of the cell culture plates. The contents were covered from light and mixed on an orbital shaker at room temperature for 10 min. Luminescence was recorded by a Synergy H1 Microplate Reader (Biotek, Winooski, VT). Cells were assessed as a percentage of DMSO only treated control cells. Curves were plotted and IC50 values were calculated using the GraphPad Prism 8 program based on a sigmoidal dose-response equation (4 parameter).

[5] = biological target: T4, Ba/F3 FGFR3-BAIAP2L1 (Homo sapiens, UniProt P22607); test: Ba/F3 cell viability assay (CellTiter-Glo 2.0); format: cell-based; conditions: Ba/F3 cell data, FGFR3-BAIAP2L1 fusion, 48 hours
T4 construct: BAIAP2L1 (fusion partner, Q9UHR4 if human); host or cells: Ba/F3; the other entry of the earlier key: BAIAP2L1 (Q9UHR4, BAR/IMD domain-containing adapter protein 2-like 1)
T4 sequence (P22607 397-758 limits assumed): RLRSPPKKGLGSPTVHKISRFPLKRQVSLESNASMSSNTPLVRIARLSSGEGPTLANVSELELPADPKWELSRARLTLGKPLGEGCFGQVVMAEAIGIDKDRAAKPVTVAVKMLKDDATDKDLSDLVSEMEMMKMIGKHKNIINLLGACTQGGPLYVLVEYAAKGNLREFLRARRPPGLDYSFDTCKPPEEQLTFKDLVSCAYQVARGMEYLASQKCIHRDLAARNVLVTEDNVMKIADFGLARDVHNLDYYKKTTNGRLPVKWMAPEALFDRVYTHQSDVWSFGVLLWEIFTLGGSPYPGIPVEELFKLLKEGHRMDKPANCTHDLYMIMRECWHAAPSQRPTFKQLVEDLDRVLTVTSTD

[6] = biological target: T5, FGFR1 (Homo sapiens, UniProt P11362); test: Kinase binding assay (Kd), kinase-tagged T7 phage, affinity beads, qPCR; conditions: in vitro binding assay, 11-point 3-fold dilution series
T5 construct: made in house; host or cells: E. coli (BL21-derived) infected with T7 phage
T5 sequence (P11362 22-822): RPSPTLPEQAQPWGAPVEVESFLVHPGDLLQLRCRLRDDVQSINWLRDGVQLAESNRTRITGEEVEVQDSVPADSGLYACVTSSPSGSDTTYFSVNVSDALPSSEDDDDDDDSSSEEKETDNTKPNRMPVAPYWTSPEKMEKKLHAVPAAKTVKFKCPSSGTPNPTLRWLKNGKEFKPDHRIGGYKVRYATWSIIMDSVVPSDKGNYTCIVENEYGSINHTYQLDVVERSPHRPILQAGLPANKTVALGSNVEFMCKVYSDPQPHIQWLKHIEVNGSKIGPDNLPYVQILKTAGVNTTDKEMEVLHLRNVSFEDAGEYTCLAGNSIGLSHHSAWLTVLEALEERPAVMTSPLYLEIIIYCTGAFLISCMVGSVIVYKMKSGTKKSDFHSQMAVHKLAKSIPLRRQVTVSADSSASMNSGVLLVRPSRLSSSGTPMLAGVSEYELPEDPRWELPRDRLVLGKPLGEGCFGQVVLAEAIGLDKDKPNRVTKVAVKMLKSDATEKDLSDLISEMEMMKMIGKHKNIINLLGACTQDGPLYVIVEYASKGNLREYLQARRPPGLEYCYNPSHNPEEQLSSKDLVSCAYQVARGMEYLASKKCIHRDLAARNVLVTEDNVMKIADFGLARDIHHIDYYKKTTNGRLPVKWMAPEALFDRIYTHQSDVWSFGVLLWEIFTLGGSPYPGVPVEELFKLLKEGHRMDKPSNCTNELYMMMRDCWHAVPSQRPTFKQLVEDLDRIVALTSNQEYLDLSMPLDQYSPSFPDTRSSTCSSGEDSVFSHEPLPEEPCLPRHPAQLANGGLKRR
Description: (§1) Kinase-tagged T7 phage strains were prepared in an E. coli host derived from the BL21 strain. E. coli were grown to log-phase and infected with T7 phage and incubated with shaking at 32° C. until lysis. The lysates were centrifuged and filtered to remove cell debris. Streptavidin-coated magnetic beads were treated with biotinylated small molecule ligands for 30 minutes at room temperature to generate affinity resins for kinase assays. The liganded beads were blocked with excess biotin and washed with blocking buffer SeaBlock (Pierce), 1% BSA, 0.05% Tween 20, 1 mM DTT to remove unbound ligand and to reduce non-specific binding. Binding reactions were assembled by combining kinases, liganded affinity beads, and test compounds in 1× binding buffer (20% SeaBlock, 0.17×PBS, 0.05% Tween 20, 6 mM DTT).
(§2) Test compounds were prepared as 111× stocks in 100% DMSO. Kds were determined using an 11-point 3-fold compound dilution series with three DMSO control points. All compounds for Kd measurements are distributed by acoustic transfer (non-contact dispensing) in 100% DMSO. The compounds were then diluted directly into the assays such that the final concentration of DMSO was 0.9%. All reactions performed in polypropylene 384-well plate. Each was a final volume of 0.02 ml. The assay plates were incubated at room temperature with shaking for 1 hour and the affinity beads were washed with wash buffer (1×PBS, 0.05% Tween 20). The beads were then re-suspended in elution buffer (1×PBS, 0.05% Tween 20, 0.5 μM non-biotinylated affinity ligand) and incubated at room temperature with shaking for 30 minutes. The kinase concentration in the eluates was measured by qPCR.
(§3) Binding constants were calculated with a standard dose-response curve using the Hill equation: […]
(§4) The Hill Slope was set to −1. Curves were fitted using a non-linear least square fit with the Levenberg-Marquardt algorithm.

[7] = biological target: T6, FGFR3 (Homo sapiens, UniProt P22607); test: as above; conditions: in vitro binding assay, 11-point 3-fold dilution series
T6 construct: made in house; host or cells: E. coli (BL21-derived) infected with T7 phage
T6 sequence (P22607 23-806): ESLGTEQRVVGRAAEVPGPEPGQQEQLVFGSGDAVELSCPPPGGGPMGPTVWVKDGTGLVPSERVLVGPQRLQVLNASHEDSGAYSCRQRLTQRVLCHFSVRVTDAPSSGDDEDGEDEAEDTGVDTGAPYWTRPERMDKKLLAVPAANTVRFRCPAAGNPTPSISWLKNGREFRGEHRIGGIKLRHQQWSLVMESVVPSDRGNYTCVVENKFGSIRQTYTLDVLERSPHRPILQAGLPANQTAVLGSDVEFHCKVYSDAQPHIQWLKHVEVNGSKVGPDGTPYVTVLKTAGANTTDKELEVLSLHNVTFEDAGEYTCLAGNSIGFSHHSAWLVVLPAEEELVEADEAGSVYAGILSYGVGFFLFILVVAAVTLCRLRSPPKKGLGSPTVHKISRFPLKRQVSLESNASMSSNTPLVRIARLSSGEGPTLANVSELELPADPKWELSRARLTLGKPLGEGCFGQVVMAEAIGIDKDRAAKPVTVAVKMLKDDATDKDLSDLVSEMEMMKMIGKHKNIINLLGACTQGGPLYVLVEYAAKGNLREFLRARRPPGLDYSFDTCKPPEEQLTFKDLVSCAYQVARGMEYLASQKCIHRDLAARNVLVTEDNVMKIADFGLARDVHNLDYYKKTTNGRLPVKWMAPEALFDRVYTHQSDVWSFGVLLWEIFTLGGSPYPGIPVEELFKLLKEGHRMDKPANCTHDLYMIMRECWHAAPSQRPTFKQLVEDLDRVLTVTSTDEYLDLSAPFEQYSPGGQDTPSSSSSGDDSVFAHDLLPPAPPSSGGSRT
Description: as §1, §2, §3, §4

[8] = biological target: T7, FGFR4 (Homo sapiens, UniProt P22455); test: as above; conditions: in vitro binding assay, 11-point 3-fold dilution series
T7 construct: made in house; host or cells: E. coli (BL21-derived) infected with T7 phage
T7 sequence (P22455 22-802): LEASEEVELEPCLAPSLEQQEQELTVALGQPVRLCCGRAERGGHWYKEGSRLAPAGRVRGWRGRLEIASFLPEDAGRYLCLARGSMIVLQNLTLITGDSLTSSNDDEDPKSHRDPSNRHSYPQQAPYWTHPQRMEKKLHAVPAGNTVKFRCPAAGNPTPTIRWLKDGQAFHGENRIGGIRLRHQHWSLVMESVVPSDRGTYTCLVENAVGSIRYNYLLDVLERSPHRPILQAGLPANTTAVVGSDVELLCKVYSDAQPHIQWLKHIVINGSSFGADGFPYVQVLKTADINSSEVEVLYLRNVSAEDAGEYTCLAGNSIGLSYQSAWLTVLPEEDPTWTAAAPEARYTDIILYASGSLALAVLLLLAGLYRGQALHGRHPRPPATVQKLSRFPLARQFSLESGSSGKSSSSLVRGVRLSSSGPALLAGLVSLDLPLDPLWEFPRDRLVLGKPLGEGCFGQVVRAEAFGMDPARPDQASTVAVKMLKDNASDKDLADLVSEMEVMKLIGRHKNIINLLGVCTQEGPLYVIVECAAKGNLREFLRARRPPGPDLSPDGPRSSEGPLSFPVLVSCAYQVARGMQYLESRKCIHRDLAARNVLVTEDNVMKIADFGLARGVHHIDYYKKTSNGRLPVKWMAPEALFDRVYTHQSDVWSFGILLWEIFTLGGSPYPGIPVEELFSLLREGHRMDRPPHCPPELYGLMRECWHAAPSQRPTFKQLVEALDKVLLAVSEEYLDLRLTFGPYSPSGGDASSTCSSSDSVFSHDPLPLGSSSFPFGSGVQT
Description: as §1, §2, §3, §4

[9] = biological target: T8, FGFR2 (Homo sapiens, UniProt P21802); test: as above; conditions: in vitro binding assay, 11-point 3-fold dilution series
T8 construct: made in house; host or cells: E. coli (BL21-derived) infected with T7 phage
T8 sequence (P21802 22-821): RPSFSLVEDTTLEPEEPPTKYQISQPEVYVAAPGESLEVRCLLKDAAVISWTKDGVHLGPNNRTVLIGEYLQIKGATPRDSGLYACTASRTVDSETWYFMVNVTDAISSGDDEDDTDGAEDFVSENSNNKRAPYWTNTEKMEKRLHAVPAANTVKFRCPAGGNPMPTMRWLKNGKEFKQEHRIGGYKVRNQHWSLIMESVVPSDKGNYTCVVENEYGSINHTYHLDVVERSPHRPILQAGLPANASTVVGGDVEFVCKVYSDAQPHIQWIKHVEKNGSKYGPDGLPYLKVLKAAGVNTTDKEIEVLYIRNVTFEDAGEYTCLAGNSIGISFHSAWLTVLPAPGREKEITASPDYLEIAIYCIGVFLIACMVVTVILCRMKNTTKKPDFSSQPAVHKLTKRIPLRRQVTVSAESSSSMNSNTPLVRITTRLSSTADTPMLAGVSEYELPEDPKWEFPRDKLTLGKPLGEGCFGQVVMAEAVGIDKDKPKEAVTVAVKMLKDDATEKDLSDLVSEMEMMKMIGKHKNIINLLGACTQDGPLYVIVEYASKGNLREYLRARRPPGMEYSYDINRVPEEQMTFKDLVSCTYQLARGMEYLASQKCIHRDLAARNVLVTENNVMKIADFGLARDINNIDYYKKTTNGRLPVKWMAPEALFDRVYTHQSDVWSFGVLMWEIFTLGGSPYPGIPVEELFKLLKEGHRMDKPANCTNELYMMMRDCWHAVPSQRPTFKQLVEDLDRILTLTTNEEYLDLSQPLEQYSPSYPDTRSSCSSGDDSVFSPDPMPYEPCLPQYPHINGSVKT
Description: as §1, §2, §3, §4

[10] = biological target: T9, FGFR3 (V555M) (Homo sapiens, UniProt P22607, V555M); test: as above; conditions: in vitro binding assay, 11-point 3-fold dilution series
T9 construct: made in house; host or cells: E. coli (BL21-derived) infected with T7 phage
T9 sequence (P22607 23-806 V555M): as the sequence (P22607 23-806) above, with V533M counted along it
Description: as §1, §2, §3, §4

[11] = test system: KG-1; test: Cancer cell line cell viability assay (CellTiter-Glo 2.0); format: cell-based; conditions: Homo sapiens; KG-1 (FGFR1-fusion) cell viability, 72 hours
Description: (§5) Experimental Purpose: To detect the change of intracellular ATP by Cell Titer-Glo® and to evaluate the inhibitory effect of the compounds on cancer cell lines by determining the in vitro IC50 value of the compounds.
(§6) Cell Titer-Glo® 2.0 Luminescent cell viability assay reagent was purchased from Promega (Madison, WI). RT112/84 and KG-1 cell lines were purchased from American Type Culture Collection (Manassas, VA). UM-UC-14 cell line was purchased from Sigma (St. Louis, MO). RT112/84, UM-UC-14, and KG-1 cells were cultured in RPMI1640 media supplemented with 10% fetal bovine serum. Cultures were maintained at 37° C. in a humidified atmosphere of 5% CO2 and 95% air.
(§7) Cell Viability Assay Procedure: Cells were plated in 96-well clear bottom/white plates (Corning #3903) at 10,000 cells/well in 100 μl of media, incubated overnight. The next day, test compound DMSO stock solutions were made at 10 mM and 2 μM final concentration.
(§8) Compounds were then added to cells in a 9-dose, […] dilution series starting at 30 μM with an HP 300e Digital Dispenser (each dose was applied in triplicate). DMSO was backfilled to each well up to 301 nL total volume of test compound+DMSO, and a total of 301 nL DMSO was added to a control/no test compound well in triplicate. The cells in cell culture plates were incubated with the compounds at 37° C. and 5% CO2 for 72 hours. Then 50 μl of Cell Titer Glo 2.0 reagent was added to each well of the cell culture plates. The contents were covered from light and mixed on an orbital shaker at room temperature for 10 min.
(§9) Luminescence was recorded by a Synergy H1 Microplate Reader (Biotek, Winooski, VT). Cells were assessed as a percentage of DMSO only treated control cells. Curves were plotted and IC50 values were calculated using the GraphPad Prism 8 program based on a sigmoidal dose-response equation (4 parameter).

[12] = test system: RT112/84; test: as above; format: cell-based; conditions: Homo sapiens; RT112/84 (FGFR3-fusion) cell viability, 72 hours
Description: as §5, §6, §7, §8, §9

Compound | IC50 [2] [nM] | Kd [6] [nM] | Kd [7] [nM] | Kd [8] [nM] | Kd [9] [nM] | Kd [10] [nM] | IC50 [11] [nM] | IC50 [12] [nM] | Kd [1] [nM] | Kd [3] [nM] | Kd [4] [nM] | Kd [5] [nM]
C=CC(=O)N1CC(C(=O)N2CCC(n3nnc(-c4cc(O[C@H](CO)c5ccccn5)c5c(C#N)cnn5c4)c3C)CC2)C1 (single isomer, unassigned) [Example 18] | ≥ 1000 | 0.1 to 100 | 0.1 to 100 | 0.1 to 100 | 0.1 to 100 | 0.1 to 100 | ≥ 1000 | ≥ 1000 | ≥ 1000 | ≥ 1000 | ≥ 1000 | 250 to 1000
C=CC(=O)N1CC(OC)(C(=O)N2CCC(n3nnc(-c4cc(O[C@H](CO)c5ccccn5)c5c(C#N)cnn5c4)c3C)CC2)C1 [Example 22, (S)-6-(1-(1-(1-acryloyl-3-methoxyazetidine-3-carbonyl)piperidin-4-yl)-5-methyl-1H-1,2,3-triazol-4-yl)-4-(2-hydroxy-1-(pyridin-2-yl)ethoxy)pyrazolo[1,5-a]pyridine-3-carbonitrile] | ≥ 1000 | 0.1 to 100 | 0.1 to 100 | 0.1 to 100 | 0.1 to 100 | 0.1 to 100 | ≥ 1000 | ≥ 1000 | ≥ 1000 | ≥ 1000 | ≥ 1000 | 0.1 to 100
C=CC(=O)N1CC(F)(C(=O)N2CCC(n3nnc(-c4cc(O[C@H](CO)c5ccccn5)c5c(C#N)cnn5c4)c3C)CC2)C1 (single isomer, unassigned) [Example 20] | ≥ 1000 | 0.1 to 100 | 0.1 to 100 | 0.1 to 100 | 0.1 to 100 | 0.1 to 100 | 250 to 1000 | 100 to 250 | ≥ 1000 | ≥ 1000 | ≥ 1000 | 0.1 to 100
C=CC(=O)N1CCC2(CC1)CC(n1nnc(-c3cc(O[C@H](C)c4ccccn4)c4c(C#N)cnn4c3)c1C)C2 [Example 3, (R)-6-(1-(7-acryloyl-7-azaspiro[3.5]nonan-2-yl)-5-methyl-1H-1,2,3-triazol-4-yl)-4-(1-(pyridin-2-yl)ethoxy)pyrazolo[1,5-a]pyridine-3-carbonitrile] | 0.1 to 100 | 0.1 to 100 | 0.1 to 100 | – | – | – | 0.1 to 100 | 0.1 to 100 | 0.1 to 100 | 0.1 to 100 | 100 to 250 | 0.1 to 100
C=CC(=O)N1CCC2(CC1)CC(n1ncc(-c3cc(OC(CO)c4ccn(C)n4)c4c(C#N)cnn4c3)c1C)C2 (stereo not drawn) [Example 14, 6-(1-(7-acryloyl-7-azaspiro[3.5]nonan-2-yl)-5-methyl-1H-pyrazol-4-yl)-4-(2-hydroxy-1-(1-methyl-1H-pyrazol-3-yl)ethoxy)pyrazolo[1,5-a]pyridine-3-carbonitrile] | 250 to 1000 | 100 to 250 | 0.1 to 100 | 100 to 250 | 0.1 to 100 | 100 to 250 | 250 to 1000 | 250 to 1000 | 250 to 1000 | 250 to 1000 | 250 to 1000 | 0.1 to 100

Now from value to compound, other results behind:

IC50 [2] [nM] | Kd [6] [nM] | Kd [7] [nM] | Kd [8] [nM] | Kd [9] [nM] | Kd [10] [nM] | IC50 [11] [nM] | IC50 [12] [nM] | Compound | Kd [1] [nM] | Kd [3] [nM] | Kd [4] [nM] | Kd [5] [nM]
250 to 1000 | 250 to 1000 | 250 to 1000 | ≥ 1000 | 250 to 1000 | 250 to 1000 | ≥ 1000 | ≥ 1000 | C=CC(=O)N1CCC(n2ncc(-c3cc(O[C@@H](CO)c4ccc(F)cn4)c4c(C#N)cnn4c3)c2C)CC1 [Example 2, 4-[(1R)-1-(5-fluoro-2-pyridyl)-2-hydroxy-ethoxy]-6-[5-methyl-1-(1-prop-2-enoyl-4-piperidyl)pyrazol-4-yl]pyrazolo[1,5-a]pyridine-3-carbonitrile] | ≥ 1000 | ≥ 1000 | ≥ 1000 | 250 to 1000
250 to 1000 | 0.1 to 100 | 0.1 to 100 | 0.1 to 100 | 0.1 to 100 | 0.1 to 100 | ≥ 1000 | 250 to 1000 | C=CC(=O)N1CCC2(CC1)CC(n1ncc(-c3cc(O[C@H](CO)c4ccc(F)cn4)c4c(C#N)cnn4c3)c1C)C2 [Example 9, (S)-6-(1-(7-acryloyl-7-azaspiro[3.5]nonan-2-yl)-5-methyl-1H-pyrazol-4-yl)-4-(1-(5-fluoropyridin-2-yl)-2-hydroxyethoxy)pyrazolo[1,5-a]pyridine-3-carbonitrile] | 250 to 1000 | 100 to 250 | 250 to 1000 | 0.1 to 100
100 to 250 | 100 to 250 | 0.1 to 100 | 100 to 250 | 0.1 to 100 | 0.1 to 100 | ≥ 1000 | 100 to 250 | C=CC(=O)N1CCC(n2ncc(-c3cc(O[C@H](CO)c4ccc(F)cn4)c4c(C#N)cnn4c3)c2C)CC1 [Example 1, 4-[(1S)-1-(5-fluoro-2-pyridyl)-2-hydroxy-ethoxy]-6-[5-methyl-1-(1-prop-2-enoyl-4-piperidyl)pyrazol-4-yl]pyrazolo[1,5-a]pyridine-3-carbonitrile] | 250 to 1000 | 100 to 250 | 250 to 1000 | 0.1 to 100
